Experiments:
Type in all cases: binding, mouse (Balb/c)
Details in all cases: for Cross-reactivity: (triasulfurone conc. for 50% inhibition/analog conc. for 50% inhibition) × 100
[1] = tested on: MAb 4134-40-1; assay: competitive ELISA, triasulfurone and analogs with MAb 4134-40-1 (Table 1)
Source text: (§1) As defined within the context of this invention, the percentage of cross-reactivity is represented by the following equation: [triasulfurone concentration for 50% inhibition (I50)/concentration of the triasulfurone analogs for 50% inhibition (I50)]×100.
(§2) The I50 value can be determined, for example, by means of a competitive ELISA assay (see Example 8). In that case the I50 value corresponds, for example, to the antigen concentration that leads to a 50% inhibition of the binding of the antibody to the carrier-bound antigen.
(§3) The detection of triasulfurone is effected by means of a two-step competitive ELISA test.
(§4) BSA-conjugated hapten, prepared in accordance with Example 1.3.1 or 1.3.2, in a 50mM sodium carbonate buffer (pH 9.6) (200 ng of BSA-conjugated hapten/100 μl of sodium carbonate buffer) is first of all adsorbed on microtitre plates (for example Dynatech, type M 129A) and incubated overnight at a temperature of 4° C. The plates are then washed five times with PBS buffer enriched with 0.1% (v/v) polysorbate 20 (Tween 20) (PBS Tween).
(§5) The remaining free binding sites of the solid carder material are then blocked by the addition of PBS-BSA in the form of a 1% (w/v) solution. After incubation for two hours at 22° C. the plates are washed again with PBS Tween (0.1%).
(§6) 50 μl of the supernatant of the previously cloned hybridoma cells (in a dilution of 1:2000 or 1:4000) or 50 μl of the previously purified monoclonal antibodies (40-120 ng/ml) are incubated a) with 950 μl of a standard solution containing an increasing amount of triasulfurone or of triasulfurone analogs, b) with triasulfurone-containing water samples or c) with triasulfurone-containing soil extracts. [All dilutions are carried out in PBS Tween (0.1%)].
(§7) After an incubation period of 1 hour at room temperature (22° C.), 200 μl of the antigen/antibody mixture are added to each well in the microtitre plate and the whole batch is incubated for a further one hour. The wells are then washed five times with PBS Tween (0.1%) and charged with 100 μl/well of goat anti-mouse IgG antibody that is conjugated to alkaline phosphatase (dilution 1:1500), and incubated for a period of 1.5 hours.
(§8) After washing again, 150 μl/well of the substrate p-nitrophenyl phosphate dissolved in 1 mg/ml of diethanolamine buffer ([…], pH 9.8, enriched with 0.5 mM MgCl2 ×6H2 O) are added to the wells.
(§9) The intensity of the colour reaction that has occurred is determined at a wavelength of 405 nm. […] All the samples are determined in triplicate.
(§10) In order to determine the amount of triasulfurone present in a sample, first of all a calibration curve is produced (FIG. 1), B/Bo×100 being plotted against the concentration of inhibitor. (Bo represents the absorption capacity measured without the addition of a triasulfurone inhibitor to the antibody, and B is the absorption capacity when triasulfurone inhibitors at various concentrations are added). The I50 value indicates the concentration of the antigen at which the binding of antibody to the solid phase is inhibited by 50%. The I50 value is determined using an ENZFITTER (Leatherbarrow, Elsevier-Biosoft) curve-calculation program based on a four-parameter logistical curve (Raab GM, 1983) and specially adapted to the prevailing conditions. The quantitative determination of triasulfurone in soil or water samples within the context of ELISA is also carried out using the ENZFITTER program, the adaptation of the curve being based on standards that run on any microtitre plate.

[2] = tested on: MAb 4149-1-1; assay: competitive ELISA, triasulfurone and analogs with MAb 4149-1-1 (Table 1)
Source text: as §1, §2, §3, §4, §5, §6, §7, §8, §9, §10

[3] = tested on: MAb 4147-19-4; assay: competitive ELISA, triasulfurone and analogs with MAb 4147-19-4 (Table 1)
Source text: as §1, §2, §3, §4, §5, §6, §7, §8, §9, §10

## COc1nc(C)nc(NC(=O)NS(=O)(=O)c2cc(O)ccc2OCCCl)n1 [A]
[1]
  I50 (inhibitor concentration that reduces the ELISA signal by 50% in comparison to the control): 550 ng/mL
  Cross-reactivity: 1.3%
[2]
  I50 (inhibitor concentration that reduces the ELISA signal by 50% in comparison to the control): 0.16 ng/mL
  Cross-reactivity: 31.3%
[3]
  I50 (inhibitor concentration that reduces the ELISA signal by 50% in comparison to the control): 21.4 ng/mL
  Cross-reactivity: 0.4%

## COc1nc(C)nc(NC(=O)NS(=O)(=O)c2ccc(O)cc2OCCCl)n1 [B]
[1]
  I50 (inhibitor concentration that reduces the ELISA signal by 50% in comparison to the control): > 1000 ng/mL
  Cross-reactivity: < 0.7%
[2]
  I50 (inhibitor concentration that reduces the ELISA signal by 50% in comparison to the control): 0.04 ng/mL
  Cross-reactivity: 125.0%
[3]
  I50 (inhibitor concentration that reduces the ELISA signal by 50% in comparison to the control): 85 ng/mL
  Cross-reactivity: 0.1%

## NS(=O)(=O)c1ccccc1OCCCl [C]
[1]
  I50 (inhibitor concentration that reduces the ELISA signal by 50% in comparison to the control): > 1000 ng/mL
  Cross-reactivity: < 0.7%
[2]
  I50 (inhibitor concentration that reduces the ELISA signal by 50% in comparison to the control): 1000 ng/mL
  Cross-reactivity: < 0.01%
[3]
  I50 (inhibitor concentration that reduces the ELISA signal by 50% in comparison to the control): > 1000 ng/mL
  Cross-reactivity: < 0.01%

## NS(=O)(=O)c1ccccc1OCCO [D]
[1]
  I50 (inhibitor concentration that reduces the ELISA signal by 50% in comparison to the control): > 1000 ng/mL
  Cross-reactivity: < 0.7%
[2]
  I50 (inhibitor concentration that reduces the ELISA signal by 50% in comparison to the control): > 1000 ng/mL
  Cross-reactivity: < 0.01%
[3]
  I50 (inhibitor concentration that reduces the ELISA signal by 50% in comparison to the control): > 1000 ng/mL
  Cross-reactivity: < 0.01%

## NS(=O)(=O)c1cc(O)ccc1OCCCl [E]
[1]
  I50 (inhibitor concentration that reduces the ELISA signal by 50% in comparison to the control): > 1000 ng/mL
  Cross-reactivity: < 0.7%
[2]
  I50 (inhibitor concentration that reduces the ELISA signal by 50% in comparison to the control): > 1000 ng/mL
  Cross-reactivity: < 0.01%
[3]
  I50 (inhibitor concentration that reduces the ELISA signal by 50% in comparison to the control): > 1000 ng/mL
  Cross-reactivity: < 0.01%

## COc1nc(C)nc(NC(N)=O)n1 [F]
[1]
  I50 (inhibitor concentration that reduces the ELISA signal by 50% in comparison to the control): > 1000 ng/mL
  Cross-reactivity: < 0.7%
[2]
  I50 (inhibitor concentration that reduces the ELISA signal by 50% in comparison to the control): > 1000 ng/mL
  Cross-reactivity: < 0.01%
[3]
  I50 (inhibitor concentration that reduces the ELISA signal by 50% in comparison to the control): > 1000 ng/mL
  Cross-reactivity: < 0.01%

## COc1nc(C)nc(NC(=O)NS(=O)(=O)c2ccccc2SCCF)n1 [H]
[1]
  I50 (inhibitor concentration that reduces the ELISA signal by 50% in comparison to the control): 30 ng/mL
  Cross-reactivity: 24.0%
[2]
  I50 (inhibitor concentration that reduces the ELISA signal by 50% in comparison to the control): 16.2 ng/mL
  Cross-reactivity: 0.3%
[3]
  I50 (inhibitor concentration that reduces the ELISA signal by 50% in comparison to the control): 0.13 ng/mL
  Cross-reactivity: 69.2%

## COC(=O)c1ccccc1S(=O)(=O)NC(=O)Nc1nc(OC(F)F)cc(OC(F)F)n1 [I, primisulfurone]
[1]
  I50 (inhibitor concentration that reduces the ELISA signal by 50% in comparison to the control): > 1000 ng/mL
  Cross-reactivity: < 0.7%
[2]
  I50 (inhibitor concentration that reduces the ELISA signal by 50% in comparison to the control): > 1000 ng/mL
  Cross-reactivity: < 0.01%
[3]
  I50 (inhibitor concentration that reduces the ELISA signal by 50% in comparison to the control): > 1000 ng/mL
  Cross-reactivity: < 0.01%

## COC(=O)c1ccccc1S(=O)(=O)NC(=O)Nc1nc(C)cc(C)n1 [J, sulfometurone-methyl]
[1]
  I50 (inhibitor concentration that reduces the ELISA signal by 50% in comparison to the control): > 1000 ng/mL
  Cross-reactivity: < 0.7%
[2]
  I50 (inhibitor concentration that reduces the ELISA signal by 50% in comparison to the control): > 1000 ng/mL
  Cross-reactivity: < 0.01%
[3]
  I50 (inhibitor concentration that reduces the ELISA signal by 50% in comparison to the control): > 1000 ng/mL
  Cross-reactivity: < 0.01%

## COC(=O)c1ccccc1S(=O)(=O)NC(=O)N(C)c1nc(C)nc(OC)n1 [K, tribenurone-methyl]
[1]
  I50 (inhibitor concentration that reduces the ELISA signal by 50% in comparison to the control): > 1000 ng/mL
  Cross-reactivity: < 0.7%
[2]
  I50 (inhibitor concentration that reduces the ELISA signal by 50% in comparison to the control): > 1000 ng/mL
  Cross-reactivity: < 0.01%
[3]
  I50 (inhibitor concentration that reduces the ELISA signal by 50% in comparison to the control): > 1000 ng/mL
  Cross-reactivity: < 0.01%

## COC(=O)c1sccc1S(=O)(=O)NC(=O)Nc1nc(C)nc(OC)n1 [L, thiameturone-methyl]
[1]
  I50 (inhibitor concentration that reduces the ELISA signal by 50% in comparison to the control): > 1000 ng/mL
  Cross-reactivity: < 0.7%
[2]
  I50 (inhibitor concentration that reduces the ELISA signal by 50% in comparison to the control): > 1000 ng/mL
  Cross-reactivity: < 0.01%
[3]
  I50 (inhibitor concentration that reduces the ELISA signal by 50% in comparison to the control): 14.2 ng/mL
  Cross-reactivity: 0.6%

## COc1nc(C)nc(NC(=O)NS(=O)(=O)c2ccccc2Cl)n1 [M, chlorosulfurone]
[1]
  I50 (inhibitor concentration that reduces the ELISA signal by 50% in comparison to the control): > 1000 ng/mL
  Cross-reactivity: < 0.7%
[2]
  I50 (inhibitor concentration that reduces the ELISA signal by 50% in comparison to the control): 420 ng/mL
  Cross-reactivity: 0.01%
[3]
  I50 (inhibitor concentration that reduces the ELISA signal by 50% in comparison to the control): 14.3 ng/mL
  Cross-reactivity: 0.6%

## COC(=O)c1ccccc1CS(=O)(=O)NC(=O)Nc1nc(OC)cc(OC)n1 [N, bensulfurone-methyl]
[1]
  I50 (inhibitor concentration that reduces the ELISA signal by 50% in comparison to the control): > 1000 ng/mL
  Cross-reactivity: < 0.7%
[2]
  I50 (inhibitor concentration that reduces the ELISA signal by 50% in comparison to the control): > 1000 ng/mL
  Cross-reactivity: < 0.01%
[3]
  I50 (inhibitor concentration that reduces the ELISA signal by 50% in comparison to the control): > 1000 ng/mL
  Cross-reactivity: < 0.01%

## COC(=O)c1ccccc1S(=O)(=O)NC(=O)Nc1nc(C)nc(OC)n1 [O, methsulfurone-methyl]
[1]
  I50 (inhibitor concentration that reduces the ELISA signal by 50% in comparison to the control): > 1000 ng/mL
  Cross-reactivity: < 0.7%
[2]
  I50 (inhibitor concentration that reduces the ELISA signal by 50% in comparison to the control): 600 ng/mL
  Cross-reactivity: < 0.01%
[3]
  I50 (inhibitor concentration that reduces the ELISA signal by 50% in comparison to the control): 81.5 ng/mL
  Cross-reactivity: 0.1%

## COc1cc(OC)nc(NC(=O)NS(=O)(=O)c2ncccc2C(=O)N(C)C)n1 [P, nicosulfurone-methyl]
[1]
  I50 (inhibitor concentration that reduces the ELISA signal by 50% in comparison to the control): > 1000 ng/mL
  Cross-reactivity: < 0.7%
[2]
  I50 (inhibitor concentration that reduces the ELISA signal by 50% in comparison to the control): > 1000 ng/mL
  Cross-reactivity: < 0.01%
[3]
  I50 (inhibitor concentration that reduces the ELISA signal by 50% in comparison to the control): > 1000 ng/mL
  Cross-reactivity: < 0.01%

## CCS(=O)(=O)c1cccnc1S(=O)(=O)NC(=O)Nc1nc(OC)cc(OC)n1 [Q]
[1]
  I50 (inhibitor concentration that reduces the ELISA signal by 50% in comparison to the control): > 1000 ng/mL
  Cross-reactivity: < 0.7%
[2]
  I50 (inhibitor concentration that reduces the ELISA signal by 50% in comparison to the control): > 1000 ng/mL
  Cross-reactivity: < 0.01%
[3]
  I50 (inhibitor concentration that reduces the ELISA signal by 50% in comparison to the control): > 1000 ng/mL
  Cross-reactivity: < 0.01%

## CCCOC(=O)NS(=O)(=O)c1ccccc1OCCCl [R]
[1]
  I50 (inhibitor concentration that reduces the ELISA signal by 50% in comparison to the control): 2.1 ng/mL
  Cross-reactivity: 342.9%
[2]
  I50 (inhibitor concentration that reduces the ELISA signal by 50% in comparison to the control): 0.02 ng/mL
  Cross-reactivity: 250.00%
[3]
  I50 (inhibitor concentration that reduces the ELISA signal by 50% in comparison to the control): 1.9 ng/mL
  Cross-reactivity: 4.7%

## NC(=O)NS(=O)(=O)c1ccccc1OCCCl [S]
[1]
  I50 (inhibitor concentration that reduces the ELISA signal by 50% in comparison to the control): 6.0 ng/mL
  Cross-reactivity: 120.0%
[2]
  I50 (inhibitor concentration that reduces the ELISA signal by 50% in comparison to the control): 0.02 ng/mL
  Cross-reactivity: 250.00%
[3]
  I50 (inhibitor concentration that reduces the ELISA signal by 50% in comparison to the control): 2.6 ng/mL
  Cross-reactivity: 3.5%

Source: patent publication US5359135A, “Triasulfurone compounds” (priority 1990, dated 1994)
